According to BindingDB's records for doi:10.7270/Q2TX3CSC (Vanderbilt Screening Center for GPCRs, Ion Channels and …, 2009):

The compounds below were run against T1, Solute carrier family 12 member 5 (Homo sapiens, UniProt Q9H2X9) (assay: concentration-response of KCC2 transport modulators – cell-based, HEK293 KCC2, FluoZin-2 fluorescence, dose response (AID 1736)). Conditions: not given.
T1 sequence (Q9H2X9 whole entry): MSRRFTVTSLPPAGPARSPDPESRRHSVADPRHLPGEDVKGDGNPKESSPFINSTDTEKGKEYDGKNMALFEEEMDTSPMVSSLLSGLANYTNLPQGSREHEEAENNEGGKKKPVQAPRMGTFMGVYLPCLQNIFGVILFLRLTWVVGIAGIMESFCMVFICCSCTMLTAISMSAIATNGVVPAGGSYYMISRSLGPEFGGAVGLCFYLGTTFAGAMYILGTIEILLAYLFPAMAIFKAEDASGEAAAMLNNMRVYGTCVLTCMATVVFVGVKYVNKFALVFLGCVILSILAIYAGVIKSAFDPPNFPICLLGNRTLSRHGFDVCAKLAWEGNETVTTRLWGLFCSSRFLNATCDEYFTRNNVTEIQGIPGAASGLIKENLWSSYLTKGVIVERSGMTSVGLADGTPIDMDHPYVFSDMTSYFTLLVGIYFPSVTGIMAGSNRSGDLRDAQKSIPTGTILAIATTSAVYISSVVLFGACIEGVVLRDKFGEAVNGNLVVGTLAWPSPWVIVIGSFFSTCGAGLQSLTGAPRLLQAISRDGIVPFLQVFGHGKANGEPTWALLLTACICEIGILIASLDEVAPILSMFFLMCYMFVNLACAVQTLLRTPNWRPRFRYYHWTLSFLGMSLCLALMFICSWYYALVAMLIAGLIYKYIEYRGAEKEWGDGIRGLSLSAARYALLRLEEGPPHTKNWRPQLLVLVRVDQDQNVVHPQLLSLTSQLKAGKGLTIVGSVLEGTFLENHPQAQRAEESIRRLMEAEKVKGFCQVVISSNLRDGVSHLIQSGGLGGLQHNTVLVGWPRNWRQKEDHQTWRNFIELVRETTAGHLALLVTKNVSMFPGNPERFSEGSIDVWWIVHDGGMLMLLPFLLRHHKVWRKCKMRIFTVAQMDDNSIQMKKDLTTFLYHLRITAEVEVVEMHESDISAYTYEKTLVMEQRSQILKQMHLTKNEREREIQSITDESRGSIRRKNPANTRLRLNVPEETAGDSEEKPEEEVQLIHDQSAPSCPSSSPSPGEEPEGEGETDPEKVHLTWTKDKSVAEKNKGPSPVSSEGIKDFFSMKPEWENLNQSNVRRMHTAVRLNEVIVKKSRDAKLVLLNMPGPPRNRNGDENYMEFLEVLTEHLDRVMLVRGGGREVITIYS

`COc1ccc(NC(=S)NC(N)=Nc2nc(C)c3ccccc3n2)cc1` [(1E)-1-[amino-[(4-methyl-2-quinazolinyl)amino]methylidene]-3-(4-methoxyphenyl)thiourea] and `COc1ccc(-c2cc(CNC(=O)CN(C)Cc3ccccc3)on2)cc1` [2-[benzyl(methyl)amino]-N-[[3-(4-methoxyphenyl)-1,2-oxazol-5-yl]methyl]acetamide] are within 1.5-fold of each other in EC50: 4.61 µM for the first, 5.23 µM for the second.

First: COCCNS(=O)(=O)c1ccc(-c2ccc(Cl)cc2)cc1 [4'-chloro-N-(2-methoxyethyl)-4-biphenylsulfonamide]
Second: Cc1ccc(S(=O)(=O)N(CCC(=O)O)Cc2ccc(Cl)cc2)cc1 [3-[(4-chlorobenzyl)-tosyl-amino]propionic acid]
The EC50 of the first is 12-fold higher: 6 µM for the first, 0.491 µM for the second. The second is the more potent here.

Compared with `O=C(O)/C=C/c1cn(Cc2ccccc2Cl)nc1-c1ccccc1` [(E)-3-[1-(2-chlorobenzyl)-3-phenyl-pyrazol-4-yl]acrylic acid], `O=C(O)CC/C(=C\c1ccccc1[N+](=O)[O-])c1nc2ccccc2s1` [(E)-4-(1,3-benzothiazol-2-yl)-5-(2-nitrophenyl)-4-pentenoic acid] is 150-fold higher in EC50: 3.26 µM for the first, 500 µM for the second.

`C=CCNc1oc(Cc2cccc3ccccc23)nc1C#N` [2-(1-naphthalenylmethyl)-5-(prop-2-enylamino)-4-oxazolecarbonitrile] and `C=CCn1c(Cc2cccs2)nnc1SCC(=O)c1ccc2ccccc2c1` [1-(2-naphthalenyl)-2-[[4-prop-2-enyl-5-(thiophen-2-ylmethyl)-1,2,4-triazol-3-yl]thio]ethanone] are within 1.5-fold of each other in EC50: 4.78 µM for the first, 4.42 µM for the second.

Going from `O=C(NCCc1c[nH]c2ccccc12)c1cc(S(=O)(=O)N2CCCCC2)ccc1N1CCOCC1` [N-[2-(1H-indol-3-yl)ethyl]-2-morpholin-4-yl-5-piperidin-1-ylsulfonylbenzamide] to `COc1ccc(S(=O)(=O)N2CCC(C(=O)N3CCc4ccccc4C3)CC2)cc1C` [2-({1-[(4-methoxy-3-methylphenyl)sulfonyl]-4-piperidinyl}carbonyl)-1,2,3,4-tetrahydroisoquinoline], the EC50 falls from 208 µM to 5.4 µM (39-fold). The second is the more potent here.

Going from `NC(=O)COc1ccccc1/C=C1/SC(=O)N(CC(=O)N2CCc3ccccc3C2)C1=O` [2-[2-({3-[2-(3,4-dihydro-2(1H)-isoquinolinyl)-2-oxoethyl]-2,4-dioxo-1,3-thiazolidin-5-ylidene}methyl)phenoxy]acetamide] to `O=C(NN1C(=O)/C(=C/c2nc3ccccc3[nH]2)SC1=S)c1ccccc1` [N-[(5Z)-5-(1H-benzimidazol-2-ylmethylidene)-4-oxidanylidene-2-sulfanylidene-1,3-thiazolidin-3-yl]benzamide], the EC50 falls from 32 µM to 0.38 µM (84-fold). The second is the more potent here.

Compared with `NC(=S)NN=C1C(=O)N(Cc2ccc(F)cc2)c2ccccc21` [1-[(Z)-[1-[(4-fluorophenyl)methyl]-2-oxidanylidene-indol-3-ylidene]amino]thiourea], `O=C(CSc1nnc(Cc2ccccc2)o1)c1ccc(F)cc1` [1-(4-fluorophenyl)-2-[[5-(phenylmethyl)-1,3,4-oxadiazol-2-yl]sulfanyl]ethanone] is 60-fold lower in EC50: 144 µM for the first, 2.39 µM for the second.

First: O=C(NCCc1csc(-c2ccccc2)n1)c1cccs1 [MLS000102716]
Second: O=C(NNc1nc(-c2ccccc2)cs1)c1cccs1 [MLS000858987]
The EC50 of the first is 1000-fold higher: 174 µM for the first, 0.174 µM for the second. The second is the more potent here.

First: Cc1nn(C)c(C)c1C=C1SC(S)=NC1=O [MLS000324943]
Second: Cc1[nH]c2ccccc2c1Cc1n[nH]c(=S)n1C
The EC50 of the first is 7.8-fold higher: 51.2 µM for the first, 6.59 µM for the second. The second is the more potent here.

Going from `CSc1ccccc1N=C(S)Nc1ccc(S(N)(=O)=O)cc1` [1-(2-methylsulfanylphenyl)-3-(4-sulfamoylphenyl)thiourea] to `CS/C(=N\Cc1ccc(F)cc1)NS(=O)(=O)c1cccs1` [3-(4-fluorobenzyl)-2-methyl-1-(2-thienylsulfonyl)isothiourea], the EC50 falls from 38.4 µM to 0.702 µM (55-fold). The second is the more potent here.

First: COc1ccc(S(=O)(=O)N(C)CC(=O)N2CCN(Cc3ccccc3)CC2)cc1C [4-methoxy-N,3-dimethyl-N-[2-oxidanylidene-2-[4-(phenylmethyl)piperazin-1-yl]ethyl]benzenesulfonamide]
Second: Cc1onc(C(=O)N2CCN(Cc3ccccc3)CC2)c1[N+](=O)[O-] [(4-benzylpiperazin-1-yl)-(5-methyl-4-nitro-1,2-oxazol-3-yl)methanone]
The EC50 of the first is 40-fold lower: 1.49 µM for the first, 59.4 µM for the second.

Compared with `Cc1nc(SCc2ccc(F)cc2)c([N+](=O)[O-])[nH]1` [SMR000271028], `O=[N+]([O-])c1ccc(CSc2nnc(SCc3ccccc3)s2)cc1` [2-(benzylthio)-5-[(4-nitrobenzyl)thio]-1,3,4-thiadiazole] is 2.8-fold lower in EC50: 6.28 µM for the first, 2.24 µM for the second. The second is the more potent here.

Compared with `Cc1c(N=C2Nc3cccc4cccc2c34)c(=O)n(-c2ccccc2)n1C` [4-(2-benzo[cd]indolylamino)-1,5-dimethyl-2-phenyl-3-pyrazolone], `O=c1[nH]c2c(s1)C(c1ccccc1)c1c(c(O)n(-c3ccccc3)c1O)S2` (stereo unspecified) is 22-fold lower in EC50: 1.48 µM for the first, 0.0665 µM for the second. The second is the more potent here.

First: Cc1ccc(-c2noc(CN3CCN(Cc4ccccc4)CC3)n2)cc1 [1-benzyl-4-{[3-(4-methylphenyl)-1,2,4-oxadiazol-5-yl]methyl}piperazine]
Second: Cc1cc(C)c(C#N)c(N2CCN(Cc3ccccc3)CC2)n1 [2-(4-benzyl-1-piperazinyl)-4,6-dimethylnicotinonitrile]
The EC50 of the first is 1.7-fold lower: 6.64 µM for the first, 11.3 µM for the second.

Compared with `CNc1ccc(/C=C(\CCC(=O)O)c2nc3ccccc3s2)cc1[N+](=O)[O-]` [MLS000394200], `CN(C)S(=O)(=O)c1ccc(Cl)c(C(=O)Nc2nc3ccccc3[nH]2)c1` [SMR000370637] is 12-fold lower in EC50: 24.6 µM for the first, 2.11 µM for the second. The second is the more potent here.

Going from `Cc1ccc2c(c1)nnn2C1CCN(S(=O)(=O)c2cccc(S(=O)(=O)N(C)C)c2)CC1` [MLS000033642] to `O=C(C1CCCN(S(=O)(=O)c2cccc3nonc23)C1)N1CCC(Cc2ccccc2)CC1` (stereo unspecified) [(1-benzofurazan-4-ylsulfonyl-3-piperidyl)-(4-benzylpiperidino)methanone], the EC50 rises from 3.38 µM to 3810 µM (1100-fold).

First: COc1ccccc1N1CCN(C(=S)NC(=O)/C=C/c2ccccc2)CC1 [(E)-N-[4-(2-Methoxy-phenyl)-piperazine-1-carbothioyl]-3-phenyl-acrylamide]
Second: COc1ccccc1C(=O)NC1CCN(C(=S)NCCc2ccccc2)CC1 [2-methoxy-N-[1-(2-phenylethylcarbamothioyl)piperidin-4-yl]benzamide]
The EC50 of the first is 3-fold higher: 20 µM for the first, 6.66 µM for the second. The second is the more potent here.

Compared with `O=C(Cn1cnc2c(nnn2-c2ccccc2)c1=O)NCCc1ccccc1` [2-(7-keto-3-phenyl-triazolo[4,5-d]pyrimidin-6-yl)-N-phenethyl-acetamide], `Cc1ccccc1-c1nc(CS(=O)(=O)CC(=O)NCc2ccccc2)c(C)o1` [2-[[5-methyl-2-(2-methylphenyl)-1,3-oxazol-4-yl]methylsulfonyl]-N-(phenylmethyl)ethanamide] is 2.3-fold lower in EC50: 27.5 µM for the first, 11.8 µM for the second.

`CCn1c(CCNC(=O)c2cccs2)nnc1SCC(=O)Nc1nc(-c2ccccc2)cs1` [MLS000548611] and `O=C(CSc1ccc(-c2cccs2)nn1)Nc1ccccc1F` [MLS000621184] are within 1.5-fold of each other in EC50: 4.57 µM for the first, 5.12 µM for the second.

`O=C(NC(=S)Nc1nc(-c2cccc([N+](=O)[O-])c2)cs1)c1cc(Cl)ccc1Cl` [2,5-bis(chloranyl)-N-[[4-(3-nitrophenyl)-1,3-thiazol-2-yl]carbamothioyl]benzamide] was tested, and the EC50 was 16.2 µM.

Same assay, conditions: inactive by the depositor's call

Compared with `COc1ccc(Nc2nnc(SCc3cc(=O)n4ccsc4n3)s2)cc1` [7-[[5-(4-methoxyanilino)-1,3,4-thiadiazol-2-yl]sulfanylmethyl]-[1,3]thiazolo[3,2-a]pyrimidin-5-one], `COc1ccc(C(=O)CSc2nnnn2Cc2ccccc2)cc1` [1-(4-methoxyphenyl)-2-[[1-(phenylmethyl)-1,2,3,4-tetrazol-5-yl]sulfanyl]ethanone] is 5300-fold lower in EC50: 8870 µM for the first, 1.68 µM for the second.

`O=C(CCCn1ncn2c(cc3occc32)c1=O)N1CCc2ccccc2C1` [3-[4-(3,4-dihydro-1H-isoquinolin-2-yl)-4-keto-butyl]furo[3,4]pyrrolo[3,5-c][1,2,4]triazin-4-one] and `S=c1[nH]nc(-c2cccc(Cl)c2)n1N=Cc1ccco1` [3-(3-chlorophenyl)-4-(furan-2-ylmethylideneamino)-1H-1,2,4-triazole-5-thione] are within 1.5-fold of each other in EC50: 44.2 µM for the first, 60.1 µM for the second.

Going from `Fc1ccccc1CSc1nncn1NC/C=C/c1ccccc1` [3-[(2-fluorophenyl)methylsulfanyl]-N-[(E)-3-phenylprop-2-enyl]-1,2,4-triazol-4-amine] to `COc1ccccc1-c1nc(C#N)c(N2CCC(Cc3ccccc3)CC2)o1` [2-(2-methoxyphenyl)-5-[4-(phenylmethyl)-1-piperidinyl]-4-oxazolecarbonitrile], the EC50 rises from 0.0567 µM to 0.733 µM (13-fold). The first is the more potent here.

`CC(C)Oc1ccccc1OCCCOc1cccc2cccnc12` [8-[3-(2-isopropoxyphenoxy)propoxy]quinoline] showed an EC50 of 10.5 µM.
